From US9617256B2 (priority 2007, dated 2017)
Converted amounts (≈) assume the structure as drawn.

Assays:
AECO001 (ATCC25922) = test: MIC broth microdilution, AECO001; type: cell-based, E. coli; conditions: for MIC: Escherichia coli, ATCC25922, read-out: MIC AECO001
How it was run: (§1)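 Inocula prepared from 0.5 McFarland suspensions (final 3×10^5–7×10^5 CFU/mL) were added to 2-fold drug dilution series in cation-adjusted Mueller-Hinton broth. Plates stood 18-24 hours at 35° C. under ambient air.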

[1] = system: AECO063 (ATCC25922 bearing an acrAB mutation); test: microbe, parasite or virus in culture; type: cell-based, E. coli; conditions: for MIC: Escherichia coli, ATCC25922, read-out: MIC AECO063
How it was run: as §1

APAE001 (ATCC27853) = test: MIC broth microdilution, APAE001; type: cell-based, P. aeruginosa; conditions: for MIC: Pseudomonas aeruginosa, ATCC27853, read-out: MIC APAE001, APAE001 is ATCC27853
How it was run: as §1

[2] = system: APAE006 (strain of P. aeruginosa in which all efflux pumps are inactivated); test: microbe, parasite or virus in culture; type: cell-based; conditions: for MIC: Pseudomonas aeruginosa, read-out: MIC APAE006, P. aeruginosa, all efflux pumps inactivated
How it was run: (§2)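 MICs come from broth microdilution in cation-adjusted Mueller-Hinton broth, final inoculum 3×10^5–7×10^5 CFU/mL, 18-24 hours at 35° C. Levofloxacin and QC strains served as assay controls.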

[3] = system: APAE006 in the presence of 8 micrograms per milliliter of polymyxin B nonapeptide; type: cell-based, P. aeruginosa; conditions: in the presence of 8 micrograms per milliliter of polymyxin B nonapeptide
How it was run: as §2

[4] = system: AABA1060 (clinical isolate of Acinetobacter baumannii); test: MIC broth microdilution, AABA1060; type: cell-based; conditions: for MIC: Acinetobacter baumannii, read-out: MIC AABA1060
How it was run: as §1

[5] = system: ASAU001 (laboratory strain of S. aureus, ATCC29213); test: MIC broth microdilution, ASAU001; type: cell-based; conditions: for MIC: Staphylococcus aureus, ATCC29213, read-out: MIC ASAU001
How it was run: as §1

AECO001 HSA AGP = test: MIC broth microdilution, AECO001 HSA AGP; type: cell-based, E. coli; conditions: for MIC: Escherichia coli
How it was run: as §1

Molecule	MIC (AECO001 (ATCC25922)) [µg/mL]	MIC [1] [µg/mL]	MIC (APAE001 (ATCC27853)) [µg/mL]	MIC [2] [µg/mL]	MIC APAE006 + PMBN [3]	MIC [4] [µg/mL]	MIC [5] [µg/mL]	MIC (AECO001 HSA AGP) [µg/mL]	MIC AECO001 (AECO001 (ATCC25922); AECO001 is ATCC25922)	MIC AECO063 ([1]; ATCC25922 bearing an acrAB mutation)	MIC APAE001 (APAE001 (ATCC27853); APAE001 is ATCC27853)	MIC APAE006 ([2]; P. aeruginosa, all efflux pumps inactivated)	MIC AABA1060 ([4]; clinical isolate of Acinetobacter baumannii)	MIC ASAU001 ([5]; S. aureus ATCC29213)	MIC AECO001 HSA AGP (AECO001 HSA AGP)
C[C@@H](O)[C@H](NC(=O)c1ccc(C#Cc2cccc(OC(F)(F)F)c2)cc1)C(=O)NO [Example 133-11]	< 2	< 2	16 to 64 (≈ 37.9 to 152 µM)	2 to 16 (≈ 4.74 to 37.9 µM)	A (MIC's of 2.0 μg/mL or less = A)	16 to 64 (≈ 37.9 to 152 µM)	16 to 64 (≈ 37.9 to 152 µM)	16 to 64 (≈ 37.9 to 152 µM)	–	–	–	–	–	–	–
C[C@@H](O)[C@H](NC(=O)c1ccc(C#Cc2ccc(O)cc2)cc1)C(=O)NO [Example 133-12]	< 2	< 2	< 2	< 2	A (MIC's of 2.0 μg/mL or less = A)	16 to 64 (≈ 45.2 to 181 µM)	16 to 64 (≈ 45.2 to 181 µM)	2 to 16 (≈ 5.64 to 45.2 µM)	–	–	–	–	–	–	–
C[C@@H](N)[C@H](NC(=O)c1ccc(CCc2ccc(CN3CCOCC3)cc2)cc1)C(=O)NO [Example 136-1, N-((2S,3R)-3-amino-1-(hydroxyamino)-1-oxobutan-2-yl)-4-(4-(morpholinomethyl)phenethyl)benzamide]	2 to 16 (≈ 4.54 to 36.3 µM)	< 2	2 to 16 (≈ 4.54 to 36.3 µM)	< 2	A (MIC's of 2.0 μg/mL or less = A)	16 to 64 (≈ 36.3 to 145 µM)	16 to 64 (≈ 36.3 to 145 µM)	16 to 64 (≈ 36.3 to 145 µM)	–	–	–	–	–	–	–
C[C@@H](NC(=O)CNC1CC1)[C@H](NC(=O)c1ccc(C#Cc2ccc(CN3CCOCC3)cc2)cc1)C(=O)NO [Example 137-2]	< 2	< 2	2 to 16 (≈ 3.75 to 30 µM)	< 2	A (MIC's of 2.0 μg/mL or less = A)	16 to 64 (≈ 30 to 120 µM)	> 64	2 to 16 (≈ 3.75 to 30 µM)	–	–	–	–	–	–	–
C[C@@H](NC(=O)CNC1CC1)[C@H](NC(=O)c1ccc(C#Cc2ccc(CO)cc2)cc1)C(=O)NO [Example 137-3]	< 2	< 2	2 to 16 (≈ 4.31 to 34.4 µM)	< 2	A (MIC's of 2.0 μg/mL or less = A)	16 to 64 (≈ 34.4 to 138 µM)	16 to 64 (≈ 34.4 to 138 µM)	2 to 16 (≈ 4.31 to 34.4 µM)	–	–	–	–	–	–	–
C[C@@H](N)[C@H](NC(=O)c1ccc(C#Cc2ccc(CCN)cc2)cc1)C(=O)NO [Example 137-4]	> 64	16 to 64 (≈ 42.1 to 168 µM)	> 64	16 to 64 (≈ 42.1 to 168 µM)	C (MIC's of greater than 16.0 μg/mL to 64.0 μg/mL = C)	> 64	> 64	> 64	–	–	–	–	–	–	–
CC(C)(N)C(NC(=O)c1ccc(C#Cc2ccc(CO)cc2)cc1)C(=O)NO (stereo not shown) [Example 137-5]	< 2	< 2	< 2	< 2	A (MIC's of 2.0 μg/mL or less = A)	2 to 16 (≈ 5.24 to 41.9 µM)	16 to 64 (≈ 41.9 to 168 µM)	2 to 16 (≈ 5.24 to 41.9 µM)	–	–	–	–	–	–	–
CC(C)(N)C(NC(=O)c1ccc(C#Cc2ccc(CNC3CC3)cc2)cc1)C(=O)NO (stereo not shown) [Example 137-6]	< 2	< 2	< 2	< 2	A (MIC's of 2.0 μg/mL or less = A)	2 to 16 (≈ 4.76 to 38 µM)	16 to 64 (≈ 38 to 152 µM)	2 to 16 (≈ 4.76 to 38 µM)	–	–	–	–	–	–	–
CC(C)(N)C(NC(=O)c1ccc(C#Cc2ccc(CNCC(F)F)cc2)cc1)C(=O)NO (stereo not shown) [Example 137-7]	< 2	< 2	< 2	< 2	A (MIC's of 2.0 μg/mL or less = A)	2 to 16 (≈ 4.5 to 36 µM)	16 to 64 (≈ 36 to 144 µM)	2 to 16 (≈ 4.5 to 36 µM)	–	–	–	–	–	–	–
C[C@@H](O)[C@H](NC(=O)c1ccc(CCc2ccc(CN3CCOCC3)cc2)cc1)C(=O)NO [Example 137-8]	2 to 16 (≈ 4.53 to 36.2 µM)	< 2	2 to 16 (≈ 4.53 to 36.2 µM)	< 2	A (MIC's of 2.0 μg/mL or less = A)	16 to 64 (≈ 36.2 to 145 µM)	16 to 64 (≈ 36.2 to 145 µM)	16 to 64 (≈ 36.2 to 145 µM)	–	–	–	–	–	–	–
N-[1-((S)-Hydroxycarbamoyl)-2-methylamino-ethyl]-4-[(E)-4-(4-morpholin-4-ylmethyl-phenyl)-but-1-en-3-ynyl]-benzamide [Example 111-4]	–	–	–	–	A (MIC's of 2.0 μg/mL or less = A)	–	–	–	A (MIC's of 2.0 μg/mL or less = A)	A (MIC's of 2.0 μg/mL or less = A)	B (MIC's of greater than 2.0 μg/mL to 16.0 μg/mL = B)	A (MIC's of 2.0 μg/mL or less = A)	C (MIC's of greater than 16.0 μg/mL to 64.0 μg/mL = C)	D (MIC's of greater than 64.0 μg/mL = D)	C (MIC's of greater than 16.0 μg/mL to 64.0 μg/mL = C)
